Reference: patent publication US10774052B2, “Heteroaryl compounds and uses thereof” (Celgene CAR LLC, priority 2013, dated 2020)

What was measured:
pFGFR4 in Huh7 cells = test: FGFR4 signaling, pFGFR4 (Huh); MSD (Method B); format: cell-based; details: Homo sapiens, Huh-7; Huh7 cells; read-out: Signaling EC50 (nM) pFGFR4 (Huh)
[1] = test system: pFGFR4 in MDA-MB-453 cells; test: FGFR4 signaling, pFGFR4 (MDA); Western blot (Method A), MSD (Method B), ELISA (Method C); format: cell-based; details: Homo sapiens, Method B (MSD) for signaling EC50 determination

Compound | EC50 (pFGFR4 in Huh7 cells) [nM] | EC50 ([1]; MDA-MB-453 cells) [nM] | EC50 ([1]; MDA-MB-453, MDA-MB-453 cells) [nM]
C=CC(=O)Nc1cc(N(C)CCOC)ccc1Nc1ncc2c(n1)N(C)C(=O)N(c1cc(OC)cc(OC)c1)C2 [Compound I-21] | < 100 | < 100 | 
C=CC(=O)Nc1ccccc1Nc1ncc2c(n1)N(CC(O)CO)C(=O)N(c1cc(OC)cc(OC)c1)C2 (stereo not shown) [Compound I-33] | > 1000 | 101 to 500 | 
C=CC(=O)Nc1ccccc1Nc1ncc2c(n1)N(C1CCCN(C(=O)OC(C)(C)C)C1)C(=O)N(c1cc(OC)cc(OC)c1)C2 (stereo not shown) [Compound I-36] | 101 to 500 | 101 to 500 | 
C=CC(=O)Nc1cc(C)ccc1Nc1ncc2c(n1)N(C)C(=O)N(c1cc(OC)cc(OC)c1)C2 [Compound I-41] | 101 to 500 | 101 to 500 | 
C=CC(=O)Nc1cc(C(F)(F)F)ccc1Nc1ncc2c(n1)N(C)C(=O)N(c1cc(OC)cc(OC)c1)C2 [Compound I-42] | < 100 | 101 to 500 | 
C=CC(=O)Nc1ccccc1Nc1ncc2c(n1)N(C1CCCNC1)C(=O)N(c1cc(OC)cc(OC)c1)C2 (stereo not shown) [Compound I-43] | > 1000 | 501 to 999 | 
C=CC(=O)Nc1ccccc1Nc1ncc2c(n1)N(CC#N)C(=O)N(c1cc(OC)cc(OC)c1)C2 [Compound I-48] | 101 to 500 | 101 to 500 | 
C=CC(=O)Nc1ccc(C(F)(F)F)cc1Nc1ncc2c(n1)N(C)C(=O)N(c1cc(OC)cc(OC)c1)C2 [Compound I-50] | 101 to 500 | 101 to 500 | 
C=CC(=O)Nc1ccccc1Nc1ncc2c(n1)N(CCOC)C(=O)N(c1cc(OC)cc(OC)c1)C2 [Compound I-59] | 101 to 500 | 101 to 500 | 
C=CC(=O)Nc1ccccc1Nc1ncc2c(n1)N(C)C(=O)N(c1c(Cl)cccc1Cl)C2 [Compound I-83] | 101 to 500 | 101 to 500 | 
C=CC(=O)Nc1ccccc1Nc1ncc2c(n1)N(C1COC1)C(=O)N(c1cc(OC)cc(OC)c1)C2 [Compound I-88] | 101 to 500 | 101 to 500 | 
C=CC(=O)Nc1ccccc1Nc1ncc2c(n1)N(CC(F)F)C(=O)N(c1cc(OC)cc(OC)c1)C2 [Compound I-99] | 101 to 500 | 101 to 500 | 
C=CC(=O)Nc1ccccc1Nc1ncc2c(n1)N(CCF)C(=O)N(c1cc(OC)cc(OC)c1)C2 [Compound I-102] | < 100 | 101 to 500 | 
C=CC(=O)Nc1ccccc1Nc1ncc2c(n1)NC(=O)N(c1cc(OC)cc(OC)c1)C2 [Compound I-125] | > 1000 |  | 501 to 999
C=CC(=O)NC1COCC1Nc1ncc2c(n1)N(C)C(=O)N(c1c(Cl)c(OC)cc(OC)c1Cl)C2 (stereo not shown) [Compound I-126] | < 100 |  | < 100
C=CC(=O)Nc1cc(-c2nnn(C)n2)ccc1Nc1ncc2c(n1)N(C)C(=O)N(c1cc(OC)cc(OC)c1)C2 [Compound I-146] | 101 to 500 | 101 to 500 | 
C=CC(=O)Nc1cc(C(=O)NC2CCN(C)CC2)ccc1Nc1ncc2c(n1)N(C)C(=O)N(c1cc(OC)cc(OC)c1)C2 [Compound I-151] | > 1000 | 501 to 999 | 
C=CC(=O)Nc1ccccc1Nc1ncc2cc(-c3cc(OC)cc(OC)c3)c(N)nc2n1 [Compound I-155] | > 1000 | 101 to 500 | 
C=CC(=O)N[C@@H]1COC[C@@H]1Nc1ncc2c(n1)N(C)C(=O)N(c1c(Cl)c(OC)cc(OC)c1Cl)C2 [Compound I-185] | > 1000 |  | 101 to 500

Now from value to molecule, other results behind:

EC50 (pFGFR4 in Huh7 cells) [nM] | EC50 ([1]; MDA-MB-453 cells) [nM] | Compound | EC50 ([1]; MDA-MB-453, MDA-MB-453 cells) [nM]
101 to 500 | < 100 | C=CC(=O)Nc1ccccc1Nc1ncc2c(n1)N(Cc1ccc(F)cc1)C(=O)N(c1c(Cl)c(OC)cc(OC)c1Cl)C2 [Compound I-25] | 
< 100 | < 100 | C=CC(=O)Nc1ccccc1Nc1ncc2c(n1)N(Cc1cccc(N)c1)C(=O)N(c1c(Cl)c(OC)cc(OC)c1Cl)C2 [Compound I-26] | 
< 100 | < 100 | C=CC(=O)Nc1ccccc1Nc1ncc2c(n1)N(Cc1cccnc1)C(=O)N(c1cc(OC)cc(OC)c1)C2 [Compound I-44] | 
101 to 500 | 101 to 500 | C=CC(=O)Nc1ccccc1Nc1ncc2c(n1)N(Cc1cscn1)C(=O)N(c1cc(OC)cc(OC)c1)C2 [Compound I-64] | 
< 100 | < 100 | C=CC(=O)Nc1ccccc1Nc1ncc2c(n1)N(Cc1ccnc(N)c1)C(=O)N(c1cc(OC)cc(OC)c1)C2 [Compound I-87] | 
101 to 500 | 101 to 500 | C=CC(=O)Nc1ccccc1Nc1ncc2c(n1)N(Cc1cccc(C(N)=O)c1)C(=O)N(c1cc(OC)cc(OC)c1)C2 [Compound I-97] | 
< 100 | < 100 | C=CC(=O)Nc1ccccc1Nc1ncc2c(n1)N(CC1CC1)C(=O)N(c1cc(OC)cc(OC)c1)C2 [Compound I-98] | 
< 100 | < 100 | C=CC(=O)Nc1ccccc1Nc1ncc2c(n1)N(CC1CC1)C(=O)N(c1cc(OC)cc(OC)c1Cl)C2 [Compound I-100] | 
< 100 | < 100 | C=CC(=O)Nc1ccccc1Nc1ncc2c(n1)N(CC(F)F)C(=O)N(c1cc(OC)cc(OC)c1Cl)C2 [Compound I-104] | 
< 100 | < 100 | C=CC(=O)Nc1ccccc1Nc1ncc2c(n1)N(CCF)C(=O)N(c1cc(OC)cc(OC)c1Cl)C2 [Compound I-110] | 
101 to 500 | 101 to 500 | C=CC(=O)NC1CCCCC1Nc1ncc2c(n1)N(CC(F)F)C(=O)N(c1c(F)c(OC)cc(OC)c1F)C2 (stereo not shown) [Compound I-115] | 
< 100 | < 100 | C=CC(=O)Nc1ccccc1Nc1ncc2c(n1)N(CC(F)F)C(=O)N(c1c(F)c(OC)cc(OC)c1F)C2 [Compound I-116] | 
< 100 | < 100 | C=CC(=O)Nc1nn(C)cc1Nc1ncc2c(n1)N(C)C(=O)N(c1c(Cl)c(OC)cc(OC)c1Cl)C2 [Compound I-117] | 
< 100 | < 100 | C=CC(=O)Nc1ccccc1Nc1ncc2c(n1)N(Cc1cn[nH]c1)C(=O)N(c1cc(OC)cc(OC)c1)C2 [Compound I-121] | 
< 100 | < 100 | C=CC(=O)Nc1ccccc1Nc1ncc2c(n1)N(Cc1cn[nH]c1)C(=O)N(c1c(Cl)c(OC)cc(OC)c1Cl)C2 [Compound I-124] | 
< 100 | < 100 | C=CC(=O)Nc1ccccc1Nc1ncc2c(n1)N(C)C(=O)N(c1c(F)c(OC)cc(OC)c1F)C2 [Compound I-131] | 
101 to 500 | 101 to 500 | C=CC(=O)NC1CCCCC1Nc1ncc2c(n1)N(Cc1ccn(C)c(=O)c1)C(=O)N(c1c(Cl)c(OC)cc(OC)c1Cl)C2 (stereo not shown) [Compound I-132] | 
< 100 | < 100 | C=CC(=O)NC1CCCCC1Nc1ncc2c(n1)N(Cc1ccnc(N)c1)C(=O)N(c1c(Cl)c(OC)cc(OC)c1Cl)C2 (stereo not shown) [Compound I-133] | 
101 to 500 | 101 to 500 | C=CC(=O)NC1CCCCC1Nc1ncc2c(n1)N(Cc1csc(C)n1)C(=O)N(c1c(Cl)c(OC)cc(OC)c1Cl)C2 (stereo not shown) [Compound I-137] | 
101 to 500 | 101 to 500 | C=CC(=O)N[C@H]1COCC[C@H]1Nc1ncc2c(n1)N(C)C(=O)N(c1c(Cl)c(OC)cc(OC)c1Cl)C2 [Compound I-140] | 
101 to 500 | 101 to 500 | C=CC(=O)N[C@H]1CCCC[C@H]1Nc1ncc2c(n1)N(C)C(=O)N(c1c(F)c(OC)cc(OC)c1F)C2 [Compound I-143] | 
< 100 | < 100 | C=CC(=O)Nc1cc(-c2nnnn2C)ccc1Nc1ncc2c(n1)N(C)C(=O)N(c1c(Cl)c(OC)cc(OC)c1Cl)C2 [Compound I-153] | 
